Measurements reported in US6737383B1, “Herbicidal oxadiazolidines” (priority 1999, dated 2004).

Key:
green foxtail [1] = assay: Test E green foxtail; format: in vivo, Setaria viridis; conditions: Postemergence
Procedure, shortened: (§1)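 Postemergence: spray at 1–4 leaf stage, soil 60:40 sandy loam:potting mix; solvent + surfactant formulation; greenhouse 21–28 d; visual injury vs untreated controls.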

corn = assay: Test C postemergence corn; format: in vivo, Zea mays; conditions: 0 to 100 scale, 0 no effect, 100 complete control
Experimental: (§2) Compounds evaluated in this test were formulated in a non-phytotoxic solvent mixture which included a surfactant and applied to plants that were grown for various periods of time before treatment (postemergence application). A mixture of sandy loam soil and greenhouse potting mix in a 60:40 ratio was used for the postemergence test.
(§3) Plantings of these crops and weed species were adjusted to produce plants of appropriate size for the postemergence test. All plant species were grown using normal greenhouse practices. Crop and weed species include arrowleaf sida (Sida rhombifolia), barnyardgrass (Echinochloa crus-galli), cocklebur (Xanthium strumarium), common ragweed (Ambrosia elatior), corn (Zea mays), cotton (Gossypium hirsutum), eastern black nightshade (Solanum ptycanthum), fall panicum (Panicum dichotomiflorum), field bindweed (Convolvulus arvensis), giant foxtail (Setaria faberii), hairy beggarticks (Bidens pilosa), ivyleaf morningglory (Ipomoea hederacea), johnsongrass (Sorghum halepense), ladysthumb smartweed (Polygonum persicaria), lambsquarters (Chenopodium album), large crabgrass (Digitaria sanguinalis), purple nutsedge (Cyperus rotundus), redroot pigweed (Amaranthus retroflexus), soybean (Glycine max), surinam grass (Brachiaria decumbens), velvetleaf (Abutilon theophrasti) and wild poinsettia (Euphorbia heterophylla).
(§4) Treated plants and untreated controls were maintained in a greenhouse for approximately 14, to 21 days, after which all treated plants were compared to untreated controls and visually evaluated. Plant response ratings, summarized in Table C, were based upon a 0 to 100 scale where 0 was no effect and 100 was complete control. A dash response (−) means no test result.

black nightshade = assay: Test E black nightshade; format: in vivo, Solanum nigra; conditions: Preemergence
jointed goatgrass = assay: Test E jointed goatgrass; format: in vivo, Aegilops cylindrica; conditions: Preemergence
Green foxtail [2] = assay: Test D green foxtail; format: in vivo
Procedure, shortened: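 Visual injury ratings, 0 = no injury to 100 = complete control, taken 14 to 21 days after treatment. Test chemicals were in a surfactant-containing non-phytotoxic solvent; preemergence treatments went onto the sandy loam surface of seeded greenhouse pots within one day of sowing.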

fall panicum = assay: Test C postemergence fall panicum; format: in vivo, Panicum dichotomiflorum; conditions: 0 to 100 scale, 0 no effect, 100 complete control
Experimental: as §2, §3, §4

velvetleaf = assay: Test C postemergence velvetleaf; format: in vivo, Abutilon theophrasti; conditions: 0 to 100 scale, 0 no effect, 100 complete control
Experimental: as §2, §3, §4

redroot pigweed = assay: Test E redroot pigweed; format: in vivo, Amaranthus retroflexus; conditions: Postemergence
Procedure, shortened: as §1

spring barley = assay: Test E spring barley; format: in vivo, Hordeum vulgare; conditions: Preemergence
sunflower = assay: Test E sunflower; format: in vivo, Helianthus annuus; conditions: Preemergence
hairy beggarticks = assay: Test C postemergence hairy beggarticks; format: in vivo, Bidens pilosa; conditions: 0 to 100 scale, 0 no effect, 100 complete control
Procedure, shortened: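 Compounds in a non-phytotoxic solvent mixture with surfactant were sprayed postemergence on greenhouse-grown plants sized for treatment, in 60:40 sandy loam soil:potting mix. After about 14 to 21 days, injury was rated visually against untreated controls on a 0–100 scale (0 no effect, 100 complete control).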

winter barley = assay: Test E winter barley; format: in vivo, Hordeum vulgare; conditions: Postemergence
Procedure, shortened: as §1

barnyardgrass = assay: Test A barnyardgrass; format: in vivo, Echinochloa crus-galli; conditions: 0 to 10 scale where 0 is no effect and 10 is complete control
Procedure, shortened: (§5)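 Visual injury score, 0 (no effect) to 10 (complete control), vs untreated controls at ~11 d in greenhouse. Pre: soil drench on sandy loam. Post: spray to runoff, 1–2 leaf stage.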

crabgrass = assay: Test A crabgrass; format: in vivo, Digitaria spp.; conditions: 0 to 10 scale where 0 is no effect and 10 is complete control
Procedure, shortened: as §5

[3] = Rate 250 g/ha, 0 to 100 scale (0 no effect, 100 complete control)
[4] = Rate 62 g/ha, 0 to 100 scale, 0 no effect, 100 complete control
[5] = Rate 125 g/ha, 0 to 100 scale (0 no effect, 100 complete control)
[6] = Rate 64 g/ha, Preemergence; 0 to 100 scale, 0 no injury, 100 complete control
[7] = Rate 125 g/ha, Preemergence; 0 to 100 scale, 0 no injury, 100 complete control
[8] = Rate 500 g/ha, 0 to 100 scale, 0 no effect, 100 complete control
[9] = Rate 500 g/ha, 0 to 100 scale where 0 is no effect and 100 is complete control

SMILES: CCn1c(=O)on(C(=O)N(c2ccc(F)cc2)C(C)C)c1=O [Compound 107]
- Plant response rating, Green foxtail (green foxtail [1]; Rate 62 g/ha, 0 to 100 scale): 20
- Plant response rating, Green foxtail (green foxtail [1]; Rate 125 g/ha, 0 to 100 scale): 30
- Plant response rating, Green foxtail (green foxtail [1]; [3]): 85
- Plant response rating, Corn (corn; Rate 140 g/ha): 0
- Plant response rating, Corn (corn; Rate 280 g/ha): 5
- Plant response rating, Corn (corn; Rate 560 g/ha): 55
- Plant response rating, Corn (corn; Rate 1120 g/ha): 60
- Plant response rating, Blk nightshade (black nightshade; [4]): 70
- Plant response rating, Blk nightshade (black nightshade; [5]): 95
- Plant response rating, Blk nightshade (black nightshade; Rate 250 g/ha, 0 to 100 scale): 95
- Plant response rating, Jointed goatgra (jointed goatgrass; [4]): 40
- Plant response rating, Jointed goatgra (jointed goatgrass; [5]): 50
- Plant response rating, Jointed goatgra (jointed goatgrass; Rate 250 g/ha, 0 to 100 scale): 50
- Plant response rating, Green foxtail (Green foxtail [2]; Preemergence; Rate 16 g/ha; 0 to 100 scale, 0 no injury, 100 complete control): 100
- Plant response rating, Green foxtail (Green foxtail [2]; Preemergence; Rate 32 g/ha; 0 to 100 scale, 0 no injury, 100 complete control): 100
- Plant response rating, Green foxtail (Green foxtail [2]; Rate 16 g/ha; Preemergence; 0 to 100 scale, 0 no injury, 100 complete control): 100
- Plant response rating, Green foxtail (Green foxtail [2]; Rate 32 g/ha; Preemergence; 0 to 100 scale, 0 no injury, 100 complete control): 100
- Green foxtail plant response rating (Green foxtail [2]; [6]): 100
- Plant response rating, Green foxtail (Green foxtail [2]; [6]): 100
- Green foxtail plant response rating (Green foxtail [2]; [7]): 100
- Plant response rating, Green foxtail (Green foxtail [2]; [7]): 100
- Plant response rating, Green foxtail (Green foxtail [2]; Rate 250 g/ha; Preemergence; 0 to 100 scale): 100
- Plant response rating, Green foxtail (Green foxtail [2]; Rate 500 g/ha, Preemergence; 0 to 100 scale): 100
- Plant response rating Fall panicum (fall panicum; Rate 140 g/ha): 50
- Plant response rating Fall panicum (fall panicum; Rate 280 g/ha): 60
- Plant response rating Fall panicum (fall panicum; Rate 560 g/ha): 85
- Plant response rating Fall panicum (fall panicum; Rate 1120 g/ha): 85
- Plant response rating, Velvetleaf (velvetleaf; Rate 140 g/ha): 5
- Plant response rating, Velvetleaf (velvetleaf; Rate 280 g/ha): 60
- Plant response rating, Velvetleaf (velvetleaf; Rate 560 g/ha): 70
- Plant response rating, Velvetleaf (velvetleaf; Rate 1120 g/ha): 75
- Plant response rating, Redroot pigweed (redroot pigweed; Rate 62 g/ha, 0 to 100 scale): 20
- Plant response rating, Redroot pigweed (redroot pigweed; Rate 125 g/ha, 0 to 100 scale): 10
- Plant response rating, Redroot pigweed (redroot pigweed; [3]): 20
- Plant response rating, Spring Barley (spring barley; [4]): 30
- Plant response rating, Spring Barley (spring barley; [5]): 70
- Plant response rating, Spring Barley (spring barley; Rate 250 g/ha, 0 to 100 scale): 70
- Plant response rating, Sunflower (sunflower; [4]): 20
- Plant response rating, Sunflower (sunflower; [5]): 30
- Plant response rating, Sunflower (sunflower; Rate 250 g/ha, 0 to 100 scale): 40
- Plant response rating H. beggarticks (hairy beggarticks; Rate 140 g/ha): 5
- Plant response rating H. beggarticks (hairy beggarticks; Rate 280 g/ha): 60
- Plant response rating H. beggarticks (hairy beggarticks; Rate 560 g/ha): 70
- Plant response rating H. beggarticks (hairy beggarticks; Rate 1120 g/ha): 95
- Plant response rating, Barley (winter) (winter barley; Rate 62 g/ha, 0 to 100 scale): 5
- Plant response rating, Barley (winter) (winter barley; Rate 125 g/ha, 0 to 100 scale): 5
- Plant response rating, Barley (winter) (winter barley; [3]): 10

SMILES: CCn1c(=O)on(C(=O)N(c2ccc(F)cc2F)C(C)C)c1=O [Compound 116]
- Plant response rating, Green foxtail (green foxtail [1]; Rate 62 g/ha, 0 to 100 scale): 20
- Plant response rating, Green foxtail (green foxtail [1]; Rate 125 g/ha, 0 to 100 scale): 70
- Plant response rating, Green foxtail (green foxtail [1]; [3]): 75
- Plant response rating, Green foxtail (green foxtail [1]; [8]): 75
- Plant response rating, Corn (corn; Rate 140 g/ha): 0
- Plant response rating, Corn (corn; Rate 280 g/ha): 0
- Plant response rating, Corn (corn; Rate 560 g/ha): 15
- Plant response rating, Corn (corn; Rate 1120 g/ha): 20
- Plant response rating, Blk nightshade (black nightshade; [5]): 80
- Plant response rating, Blk nightshade (black nightshade; Rate 250 g/ha, 0 to 100 scale): 90
- Plant response rating, Blk nightshade (black nightshade; [9]): 100
- Plant response rating, Jointed goatgra (jointed goatgrass; [5]): 30
- Plant response rating, Jointed goatgra (jointed goatgrass; Rate 250 g/ha, 0 to 100 scale): 100
- Plant response rating, Jointed goatgra (jointed goatgrass; [9]): 65
- Plant response rating Fall panicum (fall panicum; Rate 140 g/ha): 10
- Plant response rating Fall panicum (fall panicum; Rate 280 g/ha): 60
- Plant response rating Fall panicum (fall panicum; Rate 560 g/ha): 85
- Plant response rating Fall panicum (fall panicum; Rate 1120 g/ha): 90
- Plant response rating, Velvetleaf (velvetleaf; Rate 140 g/ha): 0
- Plant response rating, Velvetleaf (velvetleaf; Rate 280 g/ha): 0
- Plant response rating, Velvetleaf (velvetleaf; Rate 560 g/ha): 40
- Plant response rating, Velvetleaf (velvetleaf; Rate 1120 g/ha): 80
- Plant response rating, Redroot pigweed (redroot pigweed; Rate 62 g/ha, 0 to 100 scale): 0
- Plant response rating, Redroot pigweed (redroot pigweed; Rate 125 g/ha, 0 to 100 scale): 0
- Plant response rating, Redroot pigweed (redroot pigweed; [3]): 0
- Plant response rating, Redroot pigweed (redroot pigweed; [8]): 0
- Plant response rating, Spring Barley (spring barley; [5]): 40
- Plant response rating, Spring Barley (spring barley; Rate 250 g/ha, 0 to 100 scale): 75
- Plant response rating, Spring Barley (spring barley; [9]): 100
- Plant response rating, Sunflower (sunflower; [5]): 15
- Plant response rating, Sunflower (sunflower; Rate 250 g/ha, 0 to 100 scale): 40
- Plant response rating, Sunflower (sunflower; [9]): 70
- Plant response rating H. beggarticks (hairy beggarticks; Rate 140 g/ha): 80
- Plant response rating H. beggarticks (hairy beggarticks; Rate 560 g/ha): 90
- Plant response rating, Barley (winter) (winter barley; Rate 62 g/ha, 0 to 100 scale): 0
- Plant response rating, Barley (winter) (winter barley; Rate 125 g/ha, 0 to 100 scale): 10
- Plant response rating, Barley (winter) (winter barley; [3]): 10
- Plant response rating, Barley (winter) (winter barley; [8]): 10

SMILES: CCOC(=O)Cn1c(=O)on(C(=O)N(c2ccc(F)cc2)C(C)C)c1=O [Compound 128]
- Plant response rating, Barnyardgrass (barnyardgrass; Postemergence, Rate 1000 g/ha): 0
- Plant response rating, Barnyardgrass (barnyardgrass; Pre-emergence, Rate 2000 g/ha): 0
- Plant response rating, Crabgrass (crabgrass; Postemergence, Rate 1000 g/ha): 0
- Plant response rating, Crabgrass (crabgrass; Pre-emergence, Rate 2000 g/ha): 0

SMILES: Cc1ccccc1Cn1c(=O)on(C(=O)N(c2ccc(Cl)cc2)C(C)C)c1=O [Compound 136]
- Plant response rating, Barnyardgrass (barnyardgrass; Postemergence, Rate 1000 g/ha): 4
- Plant response rating, Barnyardgrass (barnyardgrass; Pre-emergence, Rate 2000 g/ha): 9
- Plant response rating, Crabgrass (crabgrass; Postemergence, Rate 1000 g/ha): 6
- Plant response rating, Crabgrass (crabgrass; Pre-emergence, Rate 2000 g/ha): 10

SMILES: C=C(C)Cn1c(=O)on(C(=O)N(c2ccc(F)cc2)C(C)C)c1=O [Compound 139]
- Green foxtail plant response rating (Green foxtail [2]; [6]): 98
- Plant response rating, Green foxtail (Green foxtail [2]; [6]): 98
